This passage reports EC50 and IC50 results from patent US12338220B2, “Antiviral pyrazolopiridinone compounds” (Novartis AG, priority 2019, dated 2025).

The structures appear in SMILES notation. Where two headings read alike, the source gives them in different places.

Test [1] relates to CMV. Put plainly: microbe, parasite or virus in culture. In kind it is cell-based. The settings on record: Human betaherpesvirus 5, 72 h, read-out: CMV-Luc Cellular EC50, NN-NHDF cells, MOI 1, 72 hrs.
Test [2] has as its target CMV-polymerase (Human cytomegalovirus (strain AD169) (HHV-5) (Human herpesvirus 5), UniProt P08546). Description: biochemical.
Test [3] concerns the target HSV-polymerase (Human herpesvirus 1 (strain 17) (HHV-1) (Human herpes simplex virus 1), UniProt P04293). Description: biochemical.
Where [4] appears, read: read-out: CMV-polymerase Biochemical IC50.
Setting [5] is: read-out: HSV-polymerase Biochemical IC50.
Where [6] appears, read: CMV-polymerase Biochemical IC50.

Take `Cn1nc(C(=O)NCc2ccc(Cl)cc2)c2c1C(=O)N(CC1(S(=O)(=O)C(C)(C)COCCN)CC1)CC2` [Example 93, 6-((1-((1-(2-Aminoethoxy)-2-methylpropan-2-yl)sulfonyl)cyclopropyl)methyl)-N-(4-chlorobenzyl)-1-methyl-7-oxo-4,5,6,7-tetrahydro-1H-pyrazolo[3,4-c]pyridine-3-carboxamide]: the EC50 in test [1] worked out at 5 nM. Further, the IC50 was 1 nM in test [2] (setting [4]) and 25 nM in test [3].
Regarding `Cn1nc(C2=NO[C@H](c3ccc(C#N)cc3)C2)c2c1C(=O)N(CC1(S(=O)(=O)C(C)(C)CO)CC1)CC2` [Example 108, (S)-4-(3-(6-((1-((1-hydroxy-2-methylpropan-2-yl)sulfonyl)cyclopropyl)methyl)-1-methyl-7-oxo-4,5,6,7-tetrahydro-1H-pyrazolo[3,4-c]pyridin-3-yl)-4,5-dihydroisoxazol-5-yl)benzonitrile], the 50% effective concentration (EC50) in test [1] is 32 nM. The IC50 in test [2] (setting [4]) amounted to 1 nM; in test [3] (setting [5]), 47 nM.
As to `COCC(C)(CO)S(=O)(=O)C1(CN2CCc3c(C(=O)NCc4ccc(C#N)cc4)nn(C)c3C2=O)CC1` (single isomer, unassigned) [Example 181, (R)- or (S)-N-(4-Cyanobenzyl)-6-((1-((1-hydroxy-3-methoxy-2-methylpropan-2-yl)sulfonyl)cyclopropyl)methyl)-1-methyl-7-oxo-4,5,6,7-tetrahydro-1H-pyrazolo[3,4-c]pyridine-3-carboxamide], the 50% effective concentration (EC50) in test [1] was found to be 77 nM. In addition, the 50% inhibitory concentration (IC50) in test [2] (setting [6]) was 4 nM; in test [3] it was 69 nM.
Turning to `Cn1nc(C(=O)NCc2ccc(C#N)cc2)c2ccn(CC3(S(=O)(=O)C4CC4)CC3)c(=O)c21` [Example 1, N-(4-cyanobenzyl)-6-((1-(cyclopropylsulfonyl)cyclopropyl)methyl)-1-methyl-7-oxo-6,7-dihydro-1H-pyrazolo[3,4-c]pyridine-3-carboxamide], the EC50 in test [1] is 124 nM. Besides, the IC50 is 10 nM in test [2] (setting [4]) and 269 nM in test [3].
For `Cc1cc(NS(=O)(=O)C2(CN3CCc4c(C(=O)NCc5ccc(C#N)cc5)nn(C)c4C3=O)CC2)no1` [Example 165, N-(4-cyanobenzyl)-1-methyl-6-((1-(N-(5-methylisoxazol-3-yl)sulfamoyl)cyclopropyl)methyl)-7-oxo-4,5,6,7-tetrahydro-1H-pyrazolo[3,4-c]pyridine-3-carboxamide], in that order: 136 nM, 1 nM and 14 nM.
For `Cn1nc(C(=O)NCc2ccc(F)cc2)c2c1C(=O)N(CC1(S(=O)(=O)C(C)(C)COCCN)CC1)CC2` [Example 94, 6-((1-((1-(2-aminoethoxy)-2-methylpropan-2-yl)sulfonyl)cyclopropyl)methyl)-N-(4-fluorobenzyl)-1-methyl-7-oxo-4,5,6,7-tetrahydro-1H-pyrazolo[3,4-c]pyridine-3-carboxamide] the same measures were 22 nM, 9 nM and 54 nM.
On to `Cn1nc(C(=O)NCc2ccc(C#N)cc2)c2c1C(=O)N(CC1(S(=O)(=O)N3CC(O)C3)CC1)CC2` [Example 128, N-(4-Cyanobenzyl)-6-((1-((3-hydroxyazetidin-1-yl)sulfonyl)cyclopropyl)methyl)-1-methyl-7-oxo-4,5,6,7-tetrahydro-1H-pyrazolo[3,4-c]pyridine-3-carboxamide], for which the EC50 in test [1] came to 94 nM. Besides, the half-maximal inhibitory concentration (IC50) in test [2] (setting [6]) worked out at 5 nM; in test [3] it was 137 nM.
Consider `Cn1nc(C(=O)NCc2ccc(C#N)cc2)c2c1C(=O)N(CC1(S(=O)(=O)C(C)(C)CCO)CC1)CC2` [Example 113, N-(4-Cyanobenzyl)-6-((1-((4-hydroxy-2-methylbutan-2-yl)sulfonyl)cyclopropyl)methyl)-1-methyl-7-oxo-4,5,6,7-tetrahydro-1H-pyrazolo[3,4-c]pyridine-3-carboxamide], for which, in test [1], the EC50 was determined as 36 nM. In addition, the IC50 in test [2] (setting [4]) worked out at 3 nM; in test [3] it was 38 nM.
On to `Cn1nc(C(=O)NCc2ccc(Cl)nc2)c2c1C(=O)N(CC1(S(=O)(=O)C3CC3)CC1)CC2` [Example 7, N-((6-Chloropyridin-3-yl)methyl)-6-((1-(cyclopropylsulfonyl)cyclopropyl)methyl)-1-methyl-7-oxo-4,5,6,7-tetrahydro-1H-pyrazolo[3,4-c]pyridine-3-carboxamide], for which the EC50 in test [1] turned out to be 534 nM. The IC50 stood at 56 nM in test [2] (setting [6]) and 861 nM in test [3].
Regarding `Cn1nc(-c2cn(Cc3ccc(C#N)cc3)nn2)c2c1C(=O)N(CC1(S(=O)(=O)C(C)(C)CO)CC1)CC2` [Example 105, 4-((4-(6-((1-((1-Hydroxy-2-methylpropan-2-yl)sulfonyl)cyclopropyl)methyl)-1-methyl-7-oxo-4,5,6,7-tetrahydro-1H-pyrazolo[3,4-c]pyridin-3-yl)-1H-1,2,3-triazol-1-yl)methyl)benzonitrile], in test [1], the EC50 turned out to be 42 nM. Moreover, the IC50 in test [2] (setting [4]) worked out at 1 nM; in test [3], 32 nM.
On to `Cn1nc(C2=NO[C@@H](c3ccc(C#N)cc3)C2)c2c1C(=O)N(CC1(S(=O)(=O)C(C)(C)CO)CC1)CC2` [Example 107, (R)-4-(3-(6-((1-((1-Hydroxy-2-methylpropan-2-yl)sulfonyl)cyclopropyl)methyl)-1-methyl-7-oxo-4,5,6,7-tetrahydro-1H-pyrazolo[3,4-c]pyridin-3-yl)-4,5-dihydroisoxazol-5-yl)benzonitrile], for which the EC50 in test [1] is more than 10000 nM. For the same compound, the values for the IC50 in test [2] (setting [4]) and in test [3] (setting [5]) were 872 nM and more than 25000 nM, respectively.
With `Cn1nc(C(=O)NCc2ccc(C#N)cc2)c2c1C(=O)N(CC1(S(=O)(=O)C(C)(C)CNC=O)CC1)CC2` [Example 71, N-(4-Cyanobenzyl)-6-((1-((1-formamido-2-methylpropan-2-yl)sulfonyl)cyclopropyl)methyl)-1-methyl-7-oxo-4,5,6,7-tetrahydro-1H-pyrazolo[3,4-c]pyridine-3-carboxamide], in test [1], the EC50 stood at 95 nM. The IC50 in test [2] (setting [6]) came out at 1 nM; in test [3], 33 nM.
With `Cn1nc(C(=O)NCc2ccc(Cl)cc2)c2c1C(=O)N(CC1(S(=O)(=O)C3(COCCN)CC3)CC1)CC2` [Example 95, 6-((1-((1-((2-Aminoethoxy)methyl)cyclopropyl)sulfonyl)cyclopropyl)methyl)-N-(4-chlorobenzyl)-1-methyl-7-oxo-4,5,6,7-tetrahydro-1H-pyrazolo[3,4-c]pyridine-3-carboxamide], in test [1], the EC50 was determined as 11 nM. Further, the values for the IC50 in test [2] (setting [4]) and in test [3] were 2 nM and 25 nM, respectively.
Turning to `CC(O)CC(C)(C)S(=O)(=O)C1(CN2CCc3c(C(=O)NCc4ccc(C#N)cc4)nn(C)c3C2=O)CC1` (single isomer, unassigned) [Example 115, (R)- or (S)-N-(4-Cyanobenzyl)-6-((1-((4-hydroxy-2-methylpentan-2-yl)sulfonyl)cyclopropyl)methyl)-1-methyl-7-oxo-4,5,6,7-tetrahydro-1H-pyrazolo[3,4-c]pyridine-3-carboxamide], the EC50 in test [1] is 59 nM. The concentration for half-maximal inhibition (IC50) in test [2] (setting [6]) was 3 nM; in test [3], 71 nM.

Broadly, the EC50 is the concentration that produces a half-maximal response. In general, IC50 refers to the concentration that inhibits the measured activity by half.
